# Data published in patent US4727064A, “Pharmaceutical preparations containing cyclodextrin derivatives” (priority 1985, dated 1988).
# Counter-ions that a name gives are not always drawn. Like-named read-outs stand apart in the source and are kept apart here.
# Tests used:
# [1] = Solubility of drugs in aqueous cyclodextrin solubilizer solution (saturation by stirring with excess drug, room temperature, about 24 hours; spectrophotometric); conditions: for solubility: water
# Method: The solutions of solubilizer in water were saturated by stirring with excess of drug at room temperature for about 24 hours. The resulting suspensions were clarified either by filtration through a sintered glass filter or by centrifugation. Concentration of hormones in clarified solutions was measured spectrophotometrically. In these experiments drugs were solubilized with cyclodextrin derivatives with constant degrees of substitution and which are given in the footnote to Table 1.
# [2] = Table 1, water, cited from earlier work
# [3] = hydroxypropyl-β-cyclodextrin in water, Solubility in solubilizer solution, Table 1, hydroxypropyl-β-cyclodextrin in water, degree of substitution 6-7
# [4] = 50% aqueous carboxamido-β-cyclodextrin, Solubilities of steroids in 50% aqueous solutions of substituted cyclodextrins, Table 3, carboxamido-β-cyclodextrin
# [5] = 50% aqueous carboxymethyl-β-cyclodextrin, Solubilities of steroids in 50% aqueous solutions of substituted cyclodextrins, Table 3, carboxymethyl-β-cyclodextrin
# [6] = 50% aqueous diethylaminoethyl-β-cyclodextrin, Solubilities of steroids in 50% aqueous solutions of substituted cyclodextrins, Table 3, diethylaminoethyl-β-cyclodextrin
# [7] = 50% aqueous hydroxypropyl-beta-cyclodextrin, Solubilities of steroids in 50% aqueous solutions of hydroxypropyl-β-cyclodextrin, Table 2, d.s. 4.7
# [8] = 50% aqueous hydroxypropyl-beta-cyclodextrin, Solubilities of steroids in 50% aqueous solutions of hydroxypropyl-β-cyclodextrin, Table 2, d.s. 5.7
# [9] = 50% aqueous hydroxypropyl-beta-cyclodextrin, Solubilities of steroids in 50% aqueous solutions of hydroxypropyl-β-cyclodextrin, Table 2, d.s. 7.0
# [10] = 50% aqueous hydroxypropyl-beta-cyclodextrin, Solubilities of steroids in 50% aqueous solutions of hydroxypropyl-β-cyclodextrin, Table 2, d.s. 14
# [11] = data from J. Brotherton, Sex Hormone Pharmacology (1976), p. 36
# [12] = hydroxypropyl-β-cyclodextrin in water, Solubility in solubilizer solution
# [13] = data from K. Uekama, Pharmacology International, 61-65 (1985)
# [14] = hydroxypropyl-β-cyclodextrin in water, 24 h
SMILES,"solubility at 24 h [1, 3] [mg/mL]",solubility [1] [mg/mL],"solubility at 24 h [1, 12] [mg/mL]",other results
C#C[C@]1(O)CC[C@H]2[C@@H]3CCC4=CC(=O)CC[C@]4(C)[C@H]3CC[C@@]21C [ethisterone],0.5,< 0.2,–,–
C[C@]12CC[C@H]3[C@@H](CCC4=CC(=O)CC[C@@]43C)[C@@H]1CC[C@@H]2O [testosterone],38,–,–,"solubility at 24 h [1, 4]: 24 mg/mL; solubility at 24 h [1, 5]: 24 mg/mL; solubility at 24 h [1, 6]: 9 mg/mL; solubility at 24 h [1, 7]: 56 mg/mL; solubility at 24 h [1, 8]: 62 mg/mL; solubility at 24 h [1, 9]: 40 mg/mL; solubility at 24 h [1, 10]: 23 mg/mL; Solubility in water [2, 11]: 0.026 mg/mL"
C[C@]12CCC(=O)C=C1CC[C@@H]1[C@@H]2CC[C@@]2(C)[C@H]1CC[C@]2(C)O [17-methyltestosterone],39,< 0.17,–,–
"CC1=C(/C=C/C(C)=C/C=C/C(C)=C/C(=O)O)C(C)(C)CCC1 [retinoic acid, ethanolamine salt of all trans]",–,–,–,"solubility at 24 h ([1]; 40% hydroxypropyl-β-cyclodextrin, 1% ethanolamine, Solubility in solubilizer solution): 28.4 mg/mL"
CC1=C(/C=C/C(C)=C/C=C/C(C)=C/C=O)C(C)(C)CCC1 [retinal],–,< 0.07,2.6,–
Nc1nc2c(ncn2COCCO)c(=O)[nH]1 [acyclovir],–,–,2.5,Solubility in water [1]: insoluble
O=[N+]([O-])OCC(CO[N+](=O)[O-])O[N+](=O)[O-] [nitroglycerin],10.4,1.25,–,–
COc1ccc2c(c1)c(CC(=O)O)c(C)n2C(=O)c1ccc(Cl)cc1 [indomethacin],4.2,–,–,"Solubility in water [2, 13]: 0.02 mg/mL"
CN1CCc2cccc3c2[C@H]1Cc1ccc(O)c(O)c1-3 [apomorphine],–,20,116,–
CC1=C(/C=C/C(C)=C/C=C/C(C)=C/CO)C(C)(C)CCC1 [retinol],–,< 0.1,5.5,–
CC1OC(OC2CC(O)C3(CO)C4C(O)CC5(C)C(C6=CC(=O)OC6)CCC5(O)C4CCC3(O)C2)C(O)C(O)C1O (stereo not shown) [oubain],80,13,–,–
Cc1cc(C(C)(C)C)c(O)c(C(C)(C)C)c1 [butylated hydroxytoluene],3,–,–,"Solubility in water ([1]; Table 1, water): insoluble; solubility at 24 h ([1]; hydroxypropyl-α-cyclodextrin in water, Solubility in solubilizer solution, Table 1, hydroxypropyl-α-cyclodextrin in water, degree of substitution 6-7): 0.3 mg/mL; solubility at 24 h ([1]; hydroxypropyl-γ-cyclodextrin in water, Solubility in solubilizer solution, Table 1, hydroxypropyl-γ-cyclodextrin in water, degree of substitution 6-7): 0.2 mg/mL"
"CC1=C(/C=C/C(C)=C/C=C/C(C)=C/C(=O)O)C(C)(C)CCC1 [retinoic acid, choline salt of all trans]",–,–,–,"Solubility in solubilizer solution [1, 14]: 18.8 mg/mL"
CC(=O)Nc1ccc(O)cc1 [acetamidophen],67,11,–,–
"CC1=C(/C=C/C(C)=C/C=C/C(C)=C/C(=O)O)C(C)(C)CCC1 [retinoic acid, all trans]",–,< 0.07,–,"Solubility in solubilizer solution [1, 14]: 0.8 mg/mL"
O=C1NC(=O)C(c2ccccc2)(c2ccccc2)N1 [diphenylhydantoin],1.7,–,–,"Solubility in water [2, 13]: 0.03 mg/mL"
"CC1=C(/C=C/C(C)=C/C=C/C(C)=C/C(=O)O)C(C)(C)CCC1 [retinoic acid, sodium salt of all trans]",–,–,–,"Solubility in solubilizer solution [1, 14]: 1.6 mg/mL"
C#C[C@]1(O)CC[C@H]2[C@@H]3CCc4cc(OC)ccc4[C@H]3CC[C@@]21C [ethinylestradiol-3-methyl ether],–,< 1.5,27,–
NS(=O)(=O)c1cc2c(cc1C(F)(F)F)NCNS2(=O)=O [hydroflumethiazide],–,0.3,9.3,–
CC(=O)[C@H]1CC[C@H]2[C@@H]3CCC4=CC(=O)CC[C@]4(C)[C@H]3CC[C@]12C [progesterone],34,–,–,"solubility at 24 h [1, 4]: 38 mg/mL; solubility at 24 h [1, 5]: 14 mg/mL; solubility at 24 h [1, 6]: 18 mg/mL; solubility at 24 h [1, 7]: 30 mg/mL; solubility at 24 h [1, 8]: 44 mg/mL; solubility at 24 h [1, 9]: 35 mg/mL; solubility at 24 h [1, 10]: 23 mg/mL; Solubility in water [2, 11]: 0.015 mg/mL"
C=C1CC[C@H](O)C/C1=C/C=C1\CCC[C@]2(C)[C@@H]([C@H](C)CCCC(C)C)CC[C@@H]12 [cholecalciferol],10,< 0.23,–,–
Cn1c(=O)c2[nH]cnc2n(C)c1=O [theophylline],11,8.3,–,–
C[C@@H]1C[C@H]2[C@@H]3CCC4=CC(=O)C=C[C@]4(C)[C@@]3(F)[C@@H](O)C[C@]2(C)[C@@]1(O)C(=O)CO [dexamethasone],24,0.1,–,–
NS(=O)(=O)c1cc(C2(O)NC(=O)c3ccccc32)ccc1Cl (stereo not shown) [chlorthalidone],–,0.12,10.5,–
CC(=O)S[C@@H]1CC2=CC(=O)CC[C@]2(C)[C@H]2CC[C@@]3(C)[C@@H](CC[C@@]34CCC(=O)O4)[C@H]12 [spironolactone],–,–,42,"Solubility in water [2, 13]: 0.03 mg/mL"
Cl.Clc1cccc(Cl)c1NC1=NCCN1 [cloridine hydrochloride],–,–,–,"Solubility in solubilizer solution ([1]; Table 1, hydroxypropyl-β-cyclodextrin in water, degree of substitution 6-7, 1440 min): 83.0 mg/mL"
C[C@]12CC[C@@H]3c4ccc(O)cc4CC[C@H]3[C@@H]1C[C@@H](O)[C@@H]2O [estriol],41,< 1.3,–,–
C[C@H]1O[C@@H](O[C@H]2[C@@H](O)C[C@H](O[C@H]3[C@@H](O)C[C@H](O[C@H]4CC[C@@]5(C)[C@H](CC[C@@H]6[C@@H]5C[C@@H](O)[C@]5(C)[C@@H](C7=CC(=O)OC7)CC[C@]65O)C4)O[C@@H]3C)O[C@@H]2C)C[C@H](O)[C@@H]1O [digoxin],45,–,–,"Solubility in water [2, 13]: 0.07 mg/mL"
CC(C)NNC(=O)c1ccncc1 [iproniazid phosphate],–,30,95,–
